Experimental findings from patent US20260028364A1, “CATIONIC CHROMENONES AND THEIR USE IN ONCOLOGY” (FLORATEK PHARMA S.A., priority 2022, published 2026) are described below.

Type in all cases: cell-based
One test concerns K562. Nature of the test: CellTiter-Glo cell viability, K562. The settings on record: Homo sapiens; K562 cells, 72 h with compound. The method, then: (§1) Antitumor activity against a panel of cancer cell lines Antitumor activity of the compounds was assessed by using the CellTiter-Glow® Luminescent Cell Viability assay (Promega #G7572) according to the manufacturer's instructions. The compounds were tested at 5 or 6 concentrations in 1:2 dilution increments (highest concentration 10 µM) in triplicate well conditions.
(§2) Tumor cells were grown at 37° C. in a humidified atmosphere with 5% CO2 in RPMI 1640 or DMEM medium, supplemented with 10% (v/v) fetal calf serum and 50 μg/ml gentamicin for up to 20 passages, and were passaged once or twice weekly. Cells were harvested using TrypLE or PBS buffer containing 1 mM EDTA, and the percentage of viable cells is determined using a cell counter.
(§3) Cells were harvested from exponential phase cultures, counted and plated in 96 well flat-bottom microtiter plates at a cell density depending on the cell line's growth rate (4,000-20,000 cells/well depending on the cell line's growth rate) in RPMI 1640 or DMEM medium supplemented with 10% (v/v) fetal calf serum and 50 μg/ml gentamicin (140 μl/well). Cultures were incubated at 37° C. and 5% CO2 in a humidified atmosphere. […] Viability of cells was quantified by the CellTiter-Glow® Luminescent Cell Viability assay (Promega #G7572). Luminescence was measured with the microplate luminometer (En Vision Perkin Elmer). […]
(In general: ATP-based viability assays read luminescence as a measure of living cells.)

The subject of a further test is MOLT-4. Nature of the test: CellTiter-Glo cell viability, MOLT-4. The settings on record: Homo sapiens; MOLT-4 cells, 72 h with compound. The method, then:
as §1, §2, §3

For another test, the system named is NALM-6. Description: CellTiter-Glo cell viability, NALM-6. The settings on record: Homo sapiens; NALM-6 cells, 72 h with compound. The method, then: as §1, §2, §3
The subject of another test is NCI-H1299. Description: CellTiter-Glo cell viability, NCI-H1299. As to conditions: Homo sapiens, NCI-H1299; H1299 cells, 72 h with compound. The method, then: as §1, §2
(§4) Cells were harvested from exponential phase cultures, counted and plated in 96 well flat-bottom microtiter plates at a cell density depending on the cell line's growth rate (4,000-20,000 cells/well depending on the cell line's growth rate) in RPMI 1640 or DMEM medium supplemented with 10% (v/v) fetal calf serum and 50 μg/ml gentamicin (140 μl/well). Cultures were incubated at 37° C. and 5% CO2 in a humidified atmosphere. After 24 h, 10 μl of test compounds or control medium are added, and left on the cells for another 72 h. Compounds were serially diluted in DMSO, transferred in cell culture medium, and added to the assay plates. The DMSO concentration was kept constant at <0.2% v/v across the assay plate. Viability of cells was quantified by the CellTiter-Glow® Luminescent Cell Viability assay (Promega #G7572). Luminescence was measured with the microplate luminometer (En Vision Perkin Elmer).
(§5) Sigmoidal concentration-response curves were fitted to the data points (test-versus-control, T/C values) obtained for each tumor model using Graph Pad prism 5.02 software. IC50 values are reported as absolute IC50 values, being the concentration of test compound at the intersection of the concentration-response curves with T/C=50%.

The next test deals with HCC-15. Description: CellTiter-Glo cell viability, HCC-15. The settings on record: HCC15; HCC-15 cells, 72 h with compound. The method, then:
as §1, §2, §4, §5

Another test concerns NCI-H1975. Nature of the test: CellTiter-Glo cell viability, NCI-H1975. The settings on record: Homo sapiens, H-1975 cells, 72 h with compound. The method, then:
as §1, §2, §3

Another test concerns Daudi. Description: CellTiter-Glo cell viability, Daudi. As to conditions: Homo sapiens; Daudi cells, 72 h with compound. The method, then: as §1, §2, §3
The test system of the next test is MIA-PaCa-2. Description: CellTiter-Glo cell viability, MIA-PaCa-2. As to conditions: Homo sapiens; MIA-PaCa-2 cells, 72 h with compound. The method, then: as §1, §2, §4, §5
Another test relates to CHP-134. Description: Caspase-Glo 3/7 apoptosis assay, CHP-134. As to conditions: CHP-134 cells, 3.16 μM, 24 h. The method, then:
(§6) Apoptosis activity was evaluated using Caspase-Glo 3/7 Assay kit (Promega-G8091) according to the manufacturer's instructions. Cells were grown as above and harvested from exponential phase cultures, counted and plated in 96 black well flat-bottom microtiter plates at a cell density depending on the cell line's growth rate (3,000-10,000 cells/well depending on the cell line's growth rate). Following an overnight incubation, compounds were added to the cell plates at various concentrations (highest at […]) with the DMSO concentration maintained at 0.1% for a 24 h period treatment. 100 μL of Caspase-Glo 3/7 Reagent was added to each well of 96-well plate containing 100 μL culture medium, and after 30 min at room temperature, luminescence was measured with the microplate luminometer (EnVision Perkin Elmer). The induced relative Caspase 3/7 activity of the tested compounds was determined by the following formula: Relative Caspase 3/7 activity (fold increase)=(RLU compound−RLU blank)/(RLU control−RLU blank).

For another test, the system named is MDA-MB-468. Nature of the test: Caspase-Glo 3/7 apoptosis assay, MDA-MB-468. As to conditions: MDA-MB-468 cells, 10 μM, 24 h. The method, then: as §6
In another test the test system is SK-Mel-5. Description: Caspase-Glo 3/7 apoptosis assay, SK-Mel-5. As to conditions: SK-Mel-5 cells, 1 μM, 24 h. The method, then: as §6
In another test the test system is Oxidative Stress. Description: SelectScreen CellSensor pathway inhibition, Oxidative Stress. As to conditions: Homo sapiens; ARE-bla HepG2, stimulus tBHQ. The method, then: Inhibition of various cellular pathways known to be involved in malignancy was tested using the SelectScreen Cell-based Pathway Profiling GeneBLAzer™ cell signaling pathway specific CellSensor™ cell lines ((Thermo Fisher). The assay is based on a beta-lactamase reporter activity which is modulated and can be measured quantitatively and selectively with the LiveBLAzer™-FRET B/G Loading Substrate. SelectScreen Cell-Based Pathway Profiling Service uses XLfit from IDBS. The dose response curve is curve fit to model number 205 (sigmoidal dose-response model). Custom logic was built by Thermo Fisher for the data analysis tool to address the different compound characteristics that can be observed with functional assays.
Oxidative Stress—ARE-bla HepG2—Inhibitor Screen, Activated by tBHQ
ARE-bla HepG2 cells are thawed and resuspended in Assay Media (DMEM, 10% dialyzed FBS, 25 mM HEPES pH 7.3, 0.1 mM NEAA, 100 U/mL/100 μg/mL Pen/Strep) to a concentration of 375,000 cells/mL. 32 μL of cell suspension is added to each well of a 384-well Poly-D-Lysine assay plate. Cells in Assay Media are incubated for 16-24 hours in the plate at 37° C./5% CO2 in a humidified incubator. […] The plate is read on a fluorescence plate reader.

For orientation: IC50 means the concentration needed to halve the response being measured.

With `COc1ccc2c(=O)c(-c3ccc(CCCC[P+](c4ccccc4)(c4ccccc4)c4ccccc4)cc3)coc2c1OC.[Br-]` [SND470, (4-(4-(7,8-Dimethoxy-4-oxo-4H-chromen-3-yl)phenyl)butyl)triphenylphosphonium bromide], the IC50 with K562 turned out to be 14 nM; in the test on MOLT-4 it was 400 nM; in the test on NALM-6, 250 nM; with NCI-H1299, 40 nM; in the test on HCC-15, 10 nM; in the test with NCI-H1975, 140 nM. Besides, the figures for the 50% inhibitory concentration (IC50) in the test on Daudi, in the test with MIA-PaCa-2 and in the test on Oxidative Stress were 710 nM, 22 nM and 1350 nM, respectively. The “Fold activation of Caspase 3/7” value with CHP-134 is reported as 7.02 Fold; in the test with MDA-MB-468, 3.15 Fold; in the test on SK-Mel-5, 7.22 Fold.
